{"source": "patent US12467038B2", "about": "“Methods of culturing human pluripotent cells” (Hadasit Medical Research Services and Development Ltd., priority 2019, dated 2025)", "key": {"[1]": {"test_system": "hPSCs", "experiment": "Extended propagation and karyotype analysis", "type": "cell-based, human", "procedure": "(§1) hPSC culture—hPSC culture—hPSC lines HES-1, HES-2 (10), HADC100, HADC102 (36) and H7 (9) were cultured on human foreskin feeders in serum free medium as described (30, 87). hPSC culturing in suspension was performed as reported (31) with minor modifications of the culture medium that was composed of Neurobasal medium, 14% KO-SR, L-glutamine 2 mM, 50 units/ml penicillin, 50 μg/ml streptomycin, 1% nonessential amino acids (all from Invitrogen, Carlsbad, Calif., USA). The medium was supplemented with FGF2 20 ng/ml, and activin A 25 ng/ml (both from Peprotech, Rocky Hill, N.J., USA), and laminin 0.5 μg/ml (Sigma-Aldrich, St. Louis, Mo., USA). For hPSC culturing on mouse LN111, 3-D Culture Matrix Laminin I (CULTREX, TREVIGEN, #3446-005-01, Gaithersburg, Md., USA) was diluted to a concentration of 1 mg/ml. Tissue culture dishes were coated with LN111, incubated overnight at 37° C. to promote matrix gelling, and washed with PBS. hPSCs were cultured on LN111 in a chemically defined medium composed of DMEM/F12, B27 supplement (1:50), N2 supplement (1:100) 2 mM L-glutamine, 50 units/ml penicillin, 50 μg/ml streptomycin (all from Invitrogen), and supplemented with 20 ng/ml bFGF (Peprotech). The cells were cultured in 5% CO2, 5% O2 incubator They were passaged every 7 days as small clusters by treatment with 1 mg/ml collagenase type IV (Invitrogen), and plated in a medium containing 5 μM ROCK inhibitor. hPSC culture under naïve conditions was performed using the 5iLFA protocol (20).\nAlkaline phosphatase activity detection and karyotyping—Detection of alkaline phosphatase activity was performed on hPSC colonies using the Alkaline Phosphatase Staining Kit II (Stemgent, Cambridge, Mass., USA) according to the manufacturer's instructions. Karyotype analysis, was performed on 3-4 day hPSC colonies."}, "[2]": {"test_system": "FGF5-GFP hPSC reporter clones (HES-1)", "experiment": "FACS analysis of FGF5-GFP expression in hPS-FGF5 reporter clones", "type": "cell-based, human", "procedure": "as §1\nGeneration of FGF5 reporter cell lines—a 3 kb fragment of human FGF5 promoter (GeneBank accession number NT_016354) was amplified from HES-1 genomic DNA using Expand High Fidelity PCR System (Roche Applied Science, Penzberg, Germany) with primers CG ? TTGCTTTCCTGGCTGGGAG (SEQ ID NO: 1) (EcoRI) and CA ? AGCCTCGGGGAAGAGAAGG (SEQ ID NO: 2) (ApaI). […] Single colonies were picked, replated, and analyzed for the integrity of the integrated reporter vector. […]"}}}
{"substance": "LN111: mouse LN111, 3-D Culture Matrix Laminin I (CULTREX, TREVIGEN), coating of culture dishes", "values": [{"measurement": "extended undifferentiated propagation", "setting": "[1]; HADC100", "value": 6, "unit": "passages"}, {"measurement": "extended undifferentiated propagation", "setting": "[1]; HADC102", "value": 8, "unit": "passages"}, {"measurement": "passages propagated while maintaining a normal karyotype", "setting": "[1]; HES-1 cells", "value": "at least 10 passages"}, {"measurement": "percentage of FGF5-GFP expressing cells", "setting": "[2]; reporter clone #1 cultured on LN111", "value": "86%±2"}, {"measurement": "percentage of FGF5-GFP expressing cells", "setting": "[2]; reporter clone #2 cultured on LN111", "value": "90%±1"}, {"measurement": "percentage of FGF5-GFP expressing cells", "setting": "[2]; reporter clone #3 cultured on LN111", "value": "79%±3"}]}
